≈ marks a conversion by molar mass, not a printed value. Read-outs that look alike come from different tables or passages of the source.
Experiments:
[1] = test system: M. smegmatis overexpressing the rv0194 gene of M. tuberculosis (SMR5/pML655); experiment: microbe, parasite or virus in culture; type: cell-based; details: for MIC: Mycolicibacterium smegmatis
[2] = test system: M. bovis BCG ML1034 mutant (bcg0231/rv0194 overexpressed); type: cell-based
[3] = test system: M. tuberculosis mctB mutant ML256 (Δrv1698); type: cell-based
[4] = test system: Mtb mctB mutant ML256; set-up: species or system mice; details: mouse, in vivo
[5] = test system: M. bovis BCG transposon mutants; type: cell-based
[6] = read-out: MIC rv0194 overexpression

SMILES | Resistance Factor [1] | MIC [1, 6] | MIC ML1034 [2] | Resistance Factor [2] | other results
CO[C@@H]1[C@@H](OC(N)=O)[C@@H](O)[C@H](Oc2ccc3c(O)c(NC(=O)c4ccc(O)c(CC=C(C)C)c4)c(=O)oc3c2C)OC1(C)C [Novobiocin] | 2 | 0.008 mg/mL (≈ 13.1 µM) | – | – | –
CN[C@H](CC(C)C)C(=O)N[C@H]1C(=O)N[C@@H](CC(N)=O)C(=O)N[C@H]2C(=O)N[C@H]3C(=O)N[C@H](C(=O)N[C@H](C(=O)O)c4cc(O)cc(O)c4-c4cc3ccc4O)[C@H](O)c3ccc(c(Cl)c3)Oc3cc2cc(c3O[C@@H]2O[C@H](CO)[C@@H](O)[C@H](O)[C@H]2O[C@H]2C[C@](C)(N)[C@H](O)[C@H](C)O2)Oc2ccc(cc2Cl)[C@H]1O [Vancomycin] | 2 | 0.0025 mg/mL (≈ 1.73 µM) | 0.02 mg/mL (≈ 13.8 µM) | – | –
O=S(=O)([O-])[O-].[Cu+2] [CuSO4] | – | – | – | – | growth rate on plates with CuSO4 [3]: severely reduced the growth rate; effect of dietary CuSO4 on persistence of the mctB mutant in lungs [4]: aggravated the persistence defect
Cc1cc(-c2ccc(S(=O)(=O)O)cc2)c2ccc3c(-c4ccc(S(=O)(=O)O)cc4)cc(C)nc3c2n1 [Bathocuproine disulfonate] | – | – | – | – | protection from the toxic effects of CuSO4 [3]: protects Mtb from the toxic effects of CuSO4
CC[n+]1c(-c2ccccc2)c2cc(N)ccc2c2ccc(N)cc21 [ethidium bromide] | – | – | – | – | MIC ([1]; read-out: MIC of ethidium bromide): 0.0025 mg/mL
O=C(N[C@H](CO)[C@H](O)c1ccc([N+](=O)[O-])cc1)C(Cl)Cl [Chloramphenicol] | 1 | 0.032 mg/mL (≈ 99 µM) | 0.512 mg/mL (≈ 1580 µM) | 64 | –
CC1(C)S[C@@H]2[C@H](NC(=O)[C@H](N)c3ccccc3)C(=O)N2[C@H]1C(=O)O [Ampicillin] | 2 | 0.25 mg/mL (≈ 715 µM) | – | 32 | MIC of ampicillin, completely resistant mutants [5]: ≥ 2,000 μg/ml; MIC of ampicillin, mutants excluded from further analysis [5]: lower than 250 μg/ml; MICs of ampicillin for all transposon mutants [5]: higher than 62.5 μg/ml; MIC of amp. [2]: 2000 mg/mL
CN(C)[C@@H]1C(=O)C(C(N)=O)=C(O)[C@@]2(O)C(=O)C3=C(O)c4c(O)cccc4[C@@](C)(O)[C@H]3C[C@@H]12 [Tetracyclin] | 1 | – | >0.016 mg/mL | – | MIC rv0194 overexpression [1]: 0.0003 mg/mL (≈ 0.675 µM)
[H]/N=C(/N)N[C@H]1[C@H](O)[C@@H](O)[C@H](O[C@@H]2O[C@@H](C)[C@](O)(C=O)[C@H]2O[C@@H]2O[C@@H](CO)[C@H](O)[C@@H](O)[C@@H]2NC)[C@@H](N/C(N)=N\[H])[C@@H]1O [Streptomycin] | – | – | 0.016 mg/mL (≈ 27.5 µM) | 32 | –
CC[C@H]1OC(=O)[C@H](C)[C@@H](O[C@H]2C[C@@](C)(OC)[C@@H](O)[C@H](C)O2)[C@H](C)[C@@H](O[C@@H]2O[C@H](C)C[C@H](N(C)C)[C@H]2O)[C@](C)(O)C[C@@H](C)C(=O)[C@H](C)[C@@H](O)[C@]1(C)O [Erythromycin] | 4 | 0.01 mg/mL (≈ 13.6 µM) | – | – | –
